The supplement of paper PMC10307832

Experiments:
Assay in all cases: relative viability (nuclei count vs DMSO), 5 days (fraction); higher = more cells survive
CUDC-101 + OSI-027 = compound: C#Cc1cccc(Nc2ncnc3cc(OC)c(OCCCCCCC(=O)NO)cc23)c1 [CUDC-101] + COc1cccc2cc(-c3nc([C@H]4CC[C@H](C(=O)O)CC4)n4ncnc(N)c34)[nH]c12 [OSI-027] (partner 0.5 µM)
How it was run: (§1)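 Lung cancer cell lines in 1536-well plates were dosed by pin tool the day after seeding, either with one drug alone or with a fixed anchor-drug dose plus five library-drug doses (not always all listed) in √10 steps. After 5 days, cells were fixed and their nuclei stained in one step (final 0.05% Triton X-100, 1% formaldehyde, 1 ug/ml Hoechst), then counted on 4× images. Relative viability is the nuclei count in treated wells divided by that in vehicle wells. Values are medians of duplicate plates.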

Vandetanib + Bortezomib = compound: COc1cc2/c(=N/c3ccc(Br)cc3F)nc[nH]c2cc1OCC1CCN(C)CC1 [Vandetanib] + CC(C)C[C@H](NC(=O)[C@H](Cc1ccccc1)NC(=O)c1cnccn1)B(O)O [Bortezomib] (partner 0.002 µM)
How it was run: as §1

[1] = compound: C1=CC=C2C(=C1)N=C(S2)C(C#N)C3=NC(=NC=C3)NCCC4=CN=CC=C4 + CS(=O)(=O)N1CCN(Cc2cc3nc(-c4cccc5[nH]ncc45)nc(N4CCOCC4)c3s2)CC1 [Pictilisib] (partner 1 µM)
How it was run: as §1

[2] = compound: C1=CC=C2C(=C1)N=C(S2)C(C#N)C3=NC(=NC=C3)NCCC4=CN=CC=C4 + C[C@@H](Oc1cc(-c2cnn(C3CCNCC3)c2)cnc1N)c1c(Cl)ccc(F)c1Cl [Crizotinib] (partner 1 µM)
How it was run: as §1

Row | Cell Line | relative viability (CUDC-101 + OSI-027; first compound 0.01 µM) | relative viability (CUDC-101 + OSI-027; first compound 0.03162 µM) | relative viability (CUDC-101 + OSI-027; first compound 0.1 µM) | relative viability (CUDC-101 + OSI-027; first compound 0.3162 µM) | relative viability (CUDC-101 + OSI-027; first compound 1 µM) | relative viability (Vandetanib + Bortezomib; first compound 0.02 µM) | relative viability (Vandetanib + Bortezomib; first compound 0.06325 µM) | relative viability (Vandetanib + Bortezomib; first compound 0.2 µM) | relative viability (Vandetanib + Bortezomib; first compound 0.6325 µM) | relative viability (Vandetanib + Bortezomib; first compound 2 µM) | relative viability ([1]; first compound 0.005 µM) | relative viability ([1]; first compound 0.01581 µM) | relative viability ([1]; first compound 0.05 µM) | relative viability ([1]; first compound 0.1581 µM) | relative viability ([1]; first compound 0.5 µM) | relative viability ([2]; first compound 0.005 µM) | relative viability ([2]; first compound 0.01581 µM) | relative viability ([2]; first compound 0.05 µM) | relative viability ([2]; first compound 0.1581 µM) | relative viability ([2]; first compound 0.5 µM)
1 | HCC-44 | 0.527 | 0.685 | 0.587 | 0.586 | 0.295 | 0.866 | 0.884 | 0.951 | 0.958 | 0.89 | 0.445 | 0.509 | 0.595 | 0.856 | 0.593 | 0.753 | 0.837 | 0.826 | 0.875 | 0.69
2 | HCC-78 | 0.291 | 0.352 | 0.362 | 0.335 | 0.218 | 0.618 | 0.6 | 0.511 | 0.668 | 0.383 | 0.26 | 0.167 | 0.174 | 0.25 | 0.14 | 0.325 | 0.36 | 0.325 | 0.491 | 0.317
3 | HCC-366 | 0.914 | 0.768 | 1.01 | 1.15 | 0.815 | 1.05 | 0.983 | 0.867 | 0.909 | 1.02 | 0.138 | 0.196 | 0.181 | 0.159 | 0.117 | 0.24 | 0.458 | 0.564 | 0.844 | 0.378
4 | HCC-827 | 0.813 | 0.46 | 0.177 | 0.144 | 0.136 | 1.06 | 1.02 | 1.04 | 0.795 | 0.495 | 0.982 | 0.912 | 0.864 | 1.25 | 1.09 | 0.874 | 0.945 | 0.907 | 0.958 | 0.905
5 | HOP-62 | 0.862 | 0.842 | 0.896 | 0.924 | 0.567 | 0.624 | 0.667 | 0.847 | 0.918 | 0.663 | 0.585 | 0.672 | 0.646 | 0.945 | 0.775 | 0.779 | 0.815 | 0.675 | 1.01 | 0.725
6 | IA-LM | – | – | – | – | – | 0.727 | 0.831 | 1.01 | 1.06 | 0.953 | 0.25 | 0.368 | 0.285 | 0.387 | 0.377 | – | 0.985 | 0.922 | 0.808 | 0.808
7 | LC-2-ad | 0.823 | 1.04 | 0.985 | 0.827 | 0.339 | 0.708 | 0.984 | 0.769 | 0.884 | 0.322 | 0.437 | 0.524 | 0.487 | 0.556 | 0.426 | 0.413 | – | 0.425 | 0.502 | 0.414
8 | LCLC-97TM1 | 0.635 | 0.571 | 0.445 | 0.548 | 0.273 | 0.827 | 0.641 | 0.771 | 0.566 | 0.558 | 0.215 | 0.179 | 0.156 | 0.181 | 0.236 | 0.28 | 0.394 | 0.368 | 0.326 | 0.256
